Data set [1] can be described thus: Single oral dose (200 mg) pharmacokinetic study, plasma LC-MS/MS, noncompartmental analysis. The class given is in vivo, human. On the procedure:
For pharmacokinetic (PK) study, eligible participants were admitted and housed in the clinical pharmacology unit an evening prior to the PK study. A standard dinner was served and a fasting condition for at least 10 hrs prior to dosing and 4 hrs after dosing was ensured. A peripheral forearm vein was cannulated for sampling for the PK analysis. 200 mg of the study drug was administered with 300 mL of water. The time of actual dose administration to the nearest minute was recorded. 2.5 mL of blood was collected from the indwelling cannula at 0 (before dose), 0.25, 0.5, 0.75, 1, 1.5, 2, 4, 6, 8, 12, 18, 24, 48, 72, 96, 120, and 144 hrs (after dose). 10 mL of additional blood was collected at 0 (before dose) and 24 hr (after dose) for laboratory parameters for safety assessment and PK control sample. A time window of ±2 minutes was permitted for collecting the post dose samples from the scheduled time for PK analysis. Plasma was separated from blood sample intended for PK analysis, within 1 hour of blood sampling, by centrifugation at 2000 rpm for 10 min at 4°C. Samples were stored at −80°C pending transportation. Heparinised blood samples were transported to the laboratory within 7 days of collection. Quantitative analyses of clinical phase ascending dose and single dose PKs samples were done at GLP lab of Pharmacokinetics and Metabolism Division, CDRI, Lucknow, India. α-Arteether was used as an internal standard and all the analyses were performed as per the published method by Singh et al. 2009 [19]. Acceptance criteria for analytical runs were fixed as per internationally approved guidelines. Data acquisition and quantitation were performed using analyst software version 1.4 (Applied Biosystems, MDS SCIEX Toronto, Canada). PK parameters were estimated by using WinNonlin software (Version 1.5, Pharsight Corporation, Mountain View, CA). Oral data were best fitted in noncompartmental model. The individual plasma concentration-time profiles were subjected to noncompartmental analysis to determine various PK parameters. The PK parameters included the terminal elimination half-life (T 1/2), maximum plasma concentration (C max), time to reach maximum plasma concentration (T max), area under the curve (AUC0–∞), and mean residence time (MRT).

Details of data set [2]: method as in printed. As to conditions: background statement, ref not given; cited from earlier work.
Where [3] appears, read: 97/63 after oral 97/78 200 mg single dose, Mean ± SEM, N = 16.
The mark [4] stands for this setting: 97/63 in plasma after oral 97/78 200 mg single dose, individual volunteers 1-16.
The mark [5] stands for this setting: human, plasma, po, 200 mg, 97/63 after oral 97/78 200 mg single dose, Mean ± SEM, N = 16.

Where “and” joins values, the source holds several entries; their conditions need not be identical. Identical values can stand only once. Like-named read-outs stand apart in the source and are kept apart here.

`C=C(c1ccc(OC(C)(C)CO)cc1)C1COC2(OO1)C1CC3CC(C1)CC2C3` (stereo not drawn) [97/63]: in data set [1] (setting [3]), the “AUC0−∞” value is 878.74 ± 133.15 ng·h/mL and the MRT was 13.77 ± 2.05 h. Besides, in data set [1] (setting [4]), the “AUC0−∞” value is 788.7 ng·h/mL and 1898.9 ng·h/mL and 935 ng·h/mL and 356.1 ng·h/mL and 583.6 ng·h/mL and 696.8 ng·h/mL and 833.1 ng·h/mL and 984.1 ng·h/mL and 104.8 ng·h/mL and 1644 ng·h/mL and 602.6 ng·h/mL and 785 ng·h/mL and 1522.6 ng·h/mL and 207.9 ng·h/mL and 1604.9 ng·h/mL and 511.7 ng·h/mL; the C max was 172 ng/mL and 295 ng/mL and 47.4 ng/mL and 50.4 ng/mL and 65.4 ng/mL and 105 ng/mL and 55 ng/mL and 123 ng/mL and 20.1 ng/mL and 373 ng/mL and 187 ng/mL and 149 ng/mL and 355 ng/mL and 42.6 ng/mL and 202 ng/mL and 60.9 ng/mL; the mean residence time (MRT) is 12.57 h and 9.76 h and 30.72 h and 14.53 h and 11.26 h and 18.37 h and 32.20 h and 18.52 h and 5.72 h and 13.7 h and 3.53 h and 5.38 h and 14.25 h and 6.42 h and 14.13 h and 9.28 h; the “T 1/2” value was 13.89 h and 11.63 h and 24.26 h and 14.50 h and 10.10 h and 17.73 h and 24.51 h and 18.90 h and 2.17 h and 4.78 h and 2.20 h and 3.88 h and 21.27 h and 3.00 h and 8.94 h and 7.80 h. In data set [1] (setting [4]), the T max was 1.5 h (5×) and 2 h (6×) and 4 h (4×) and 1 h. Moreover, in data set [1] (after oral 97/78 200 mg), the “First time at which quantified in plasma” value is given as 0.5 h. Also, the “Last time at which quantified in plasma” value in data set [1] (after oral 97/78 200 mg, two volunteers up to 72 h) was “up to 48 h”. In data set [1] (setting [5]), the Cmax was found to be 144 ± 28.3 ng/mL and the Tmax is 2.28 ± 0.27 h. In addition, the AUC(0-inf) in data set [1] (male, human, plasma, po, 200 mg, 97/63 after oral 97/78 200 mg single dose, Mean ± SEM, N = 16) is 845 ± 143 ng·h/mL. Besides, the MRT in data set [1] (male, human, plasma, po, 200 mg, 97/63 after oral 97/78 200 mg single dose, Mean ± SEM, N = 16, read-out: MRT) was found to be 9.73 ± 1.06 h. Besides, in data set [1] (male, human, plasma, po, 200 mg, 97/63 after oral 97/78 200 mg, mean, as given in text without unit), the concentration peaked (Cmax) at 144 ± 28.3 ng/mL. Moreover, in data set [2], the Bioavailability entry is “poor”.

These data come from paper PMC3985299, “Single Ascending Dose Safety and Pharmacokinetics of CDRI-97/78: First-in-Human Study of a Novel Antimalarial Drug” (Malaria Research and Treatment, 2014).
